PubChem BioAssay (NCI)
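Briefly, cells in 96-well plates were exposed to five compound concentrations for 48 h, and endpoints were estimated by linear interpolation. At the TGI there is no net growth.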

Key:
Experiment in all cases: inhibition of tumour cell growth, NCI panel, 48 h
[1] = system: SF-268 CNS
[2] = system: MDA-N
[3] = system: HS 578T breast
[4] = system: BT-549 breast
[5] = system: TK-10 renal
[6] = system: SF-295 CNS
[7] = system: SN12C renal
[8] = system: MOLT-4 leukemia
[9] = system: SK-MEL-5 melanoma
[10] = system: HCT-15 colon
[11] = system: SR leukemia
[12] = system: UACC-62 melanoma
[13] = system: U251 CNS
[14] = system: PC-3 prostate
[15] = system: OVCAR-3 ovarian
[16] = system: RXF 393 renal
[17] = system: MDA-MB-435
[18] = system: IGROV1 ovarian
[19] = system: K-562 leukemia
[20] = system: EKVX NSCLC
[21] = system: MDA-MB-231 breast
[22] = system: OVCAR-4 ovarian
[23] = system: 786-0 renal
[24] = system: KM12 colon
[25] = system: SK-OV-3 ovarian
[26] = system: T-47D breast
[27] = system: OVCAR-8 ovarian
[28] = system: MCF7 breast
[29] = system: CCRF-CEM leukemia
[30] = system: COLO 205 colon
[31] = system: RPMI-8226 leukemia
[32] = system: UO-31 renal
[33] = system: HT29 colon
[34] = system: NCI-H460 lung
[35] = system: SNB-19 CNS
[36] = system: HCT-116 colon
[37] = system: SK-MEL-2 melanoma
[38] = system: NCI-H226 lung
[39] = system: UACC-257 melanoma
[40] = system: SW-620 colon
[41] = system: SK-MEL-28 melanoma
[42] = system: DU-145 prostate
[43] = system: NCI-H522 lung
[44] = system: ACHN renal
[45] = system: HCC-2998 colon
[46] = system: HOP-62 NSCLC
[47] = system: M14 melanoma
[48] = system: A498 renal
[49] = system: MALME-3M melanoma
[50] = system: SNB-75 CNS
[51] = system: NCI/ADR-RES ovarian
[52] = system: OVCAR-5 ovarian
[53] = system: A549 NSCLC
[54] = system: CAKI-1 renal
[55] = system: NCI-H23 lung
[56] = system: LOX IMVI melanoma
[57] = system: HL-60(TB) leukemia
[58] = system: SF-539 CNS
[59] = system: HOP-92 NSCLC

Measured: TGI

COC1OC2COC1(OC)C1OC(C)(C)OC21 (stereo not given)
not listed: [56] | [57] | [58] | [59]
> 100 µM: all other assays above

CN1CCN(CCCBr)CC1
not listed: [8] | [11] | [45] | [54]
> 100 µM: all other assays above
